Source: the kinase profiling compilation of Christmann-Franck et al. (2016)

Legend:
Test in all cases: KINOMEscan competition binding
Details in all cases: compound 10.0 µM
PIK3C2B (human) = PIK3C2B (human) (UniProt O00750)
LATS1 (human) = LATS1 (human) (UniProt O95835)
MYO3A (human) = MYO3A (human) (UniProt Q8NEV4)
NEK1 (human) = NEK1 (human) (UniProt Q96PY6)
[1] = system: RET (human), P07949 [M918T]
TRPM6 (human) = TRPM6 (human) (UniProt Q9BX84)
MYLK3 (human) = MYLK3 (human) (UniProt Q32MK0)
PRKCI (human) = PRKCI (human) (UniProt P41743)
TNK2 (human) = TNK2 (human) (UniProt Q07912)
Sequence of TNK2 (human) (Q07912 whole entry, looked up): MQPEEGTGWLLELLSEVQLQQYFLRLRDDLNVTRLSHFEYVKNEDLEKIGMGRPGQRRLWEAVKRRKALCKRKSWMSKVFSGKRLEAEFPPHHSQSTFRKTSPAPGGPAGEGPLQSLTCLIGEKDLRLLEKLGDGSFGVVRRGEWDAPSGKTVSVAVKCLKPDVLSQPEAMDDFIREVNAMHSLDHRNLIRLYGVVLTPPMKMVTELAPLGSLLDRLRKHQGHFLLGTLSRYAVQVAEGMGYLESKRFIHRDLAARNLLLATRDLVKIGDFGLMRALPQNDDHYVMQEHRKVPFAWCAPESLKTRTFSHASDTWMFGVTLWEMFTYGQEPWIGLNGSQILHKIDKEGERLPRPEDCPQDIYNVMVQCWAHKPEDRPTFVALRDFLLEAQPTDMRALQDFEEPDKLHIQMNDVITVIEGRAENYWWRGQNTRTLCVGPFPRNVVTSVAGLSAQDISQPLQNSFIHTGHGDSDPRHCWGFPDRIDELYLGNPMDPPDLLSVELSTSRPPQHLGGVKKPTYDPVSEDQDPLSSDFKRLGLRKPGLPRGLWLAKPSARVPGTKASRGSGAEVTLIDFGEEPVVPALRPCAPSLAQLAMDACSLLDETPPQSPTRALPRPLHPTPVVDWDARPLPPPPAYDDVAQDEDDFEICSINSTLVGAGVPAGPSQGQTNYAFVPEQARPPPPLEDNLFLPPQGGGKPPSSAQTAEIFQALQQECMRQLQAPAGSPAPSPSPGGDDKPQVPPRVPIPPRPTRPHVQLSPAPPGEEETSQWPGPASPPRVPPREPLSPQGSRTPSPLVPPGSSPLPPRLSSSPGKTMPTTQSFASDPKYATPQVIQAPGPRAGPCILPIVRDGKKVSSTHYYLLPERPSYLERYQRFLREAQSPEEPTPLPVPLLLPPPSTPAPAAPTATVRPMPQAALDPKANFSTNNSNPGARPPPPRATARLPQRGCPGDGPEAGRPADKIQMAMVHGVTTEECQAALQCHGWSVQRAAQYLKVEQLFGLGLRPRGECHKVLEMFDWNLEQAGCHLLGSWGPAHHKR

STK25 (human) = STK25 (human) (UniProt O00506)
Sequence of STK25 (human) (O00506 whole entry, looked up): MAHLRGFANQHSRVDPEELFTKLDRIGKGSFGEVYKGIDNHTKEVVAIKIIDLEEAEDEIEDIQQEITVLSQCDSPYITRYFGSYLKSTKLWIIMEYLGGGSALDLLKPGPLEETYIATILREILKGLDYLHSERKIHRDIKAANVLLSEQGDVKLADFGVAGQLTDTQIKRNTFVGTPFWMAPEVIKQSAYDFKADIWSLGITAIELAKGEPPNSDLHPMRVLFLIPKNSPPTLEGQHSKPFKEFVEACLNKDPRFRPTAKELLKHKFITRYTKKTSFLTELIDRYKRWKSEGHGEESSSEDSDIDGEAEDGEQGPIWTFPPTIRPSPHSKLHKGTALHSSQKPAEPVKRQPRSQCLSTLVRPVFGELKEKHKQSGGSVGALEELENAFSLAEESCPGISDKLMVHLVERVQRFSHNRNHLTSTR

PTK6 (human) = PTK6 (human) (UniProt Q13882)
MAP2K3 (human) = MAP2K3 (human) (UniProt P46734)
ANKK1 (human) = ANKK1 (human) (UniProt Q8NFD2)
RPS6KA6 KD1 (human) = RPS6KA6 KD1 (human) (UniProt Q9UK32)
CDK3 (human) = CDK3 (human) (UniProt Q00526)
CDK2 (human) = CDK2 (human) (UniProt P24941)
MYO3B (human) = MYO3B (human) (UniProt Q8WXR4)
PAK3 (human) = PAK3 (human) (UniProt O75914)
PI4KB (human) = PI4KB (human) (UniProt Q9UBF8)
INSR (human) = INSR (human) (UniProt P06213)
MAP3K2 (human) = MAP3K2 (human) (UniProt Q9Y2U5)
TTK (human) = TTK (human) (UniProt P33981)
Sequence of TTK (human) (P33981 whole entry, looked up): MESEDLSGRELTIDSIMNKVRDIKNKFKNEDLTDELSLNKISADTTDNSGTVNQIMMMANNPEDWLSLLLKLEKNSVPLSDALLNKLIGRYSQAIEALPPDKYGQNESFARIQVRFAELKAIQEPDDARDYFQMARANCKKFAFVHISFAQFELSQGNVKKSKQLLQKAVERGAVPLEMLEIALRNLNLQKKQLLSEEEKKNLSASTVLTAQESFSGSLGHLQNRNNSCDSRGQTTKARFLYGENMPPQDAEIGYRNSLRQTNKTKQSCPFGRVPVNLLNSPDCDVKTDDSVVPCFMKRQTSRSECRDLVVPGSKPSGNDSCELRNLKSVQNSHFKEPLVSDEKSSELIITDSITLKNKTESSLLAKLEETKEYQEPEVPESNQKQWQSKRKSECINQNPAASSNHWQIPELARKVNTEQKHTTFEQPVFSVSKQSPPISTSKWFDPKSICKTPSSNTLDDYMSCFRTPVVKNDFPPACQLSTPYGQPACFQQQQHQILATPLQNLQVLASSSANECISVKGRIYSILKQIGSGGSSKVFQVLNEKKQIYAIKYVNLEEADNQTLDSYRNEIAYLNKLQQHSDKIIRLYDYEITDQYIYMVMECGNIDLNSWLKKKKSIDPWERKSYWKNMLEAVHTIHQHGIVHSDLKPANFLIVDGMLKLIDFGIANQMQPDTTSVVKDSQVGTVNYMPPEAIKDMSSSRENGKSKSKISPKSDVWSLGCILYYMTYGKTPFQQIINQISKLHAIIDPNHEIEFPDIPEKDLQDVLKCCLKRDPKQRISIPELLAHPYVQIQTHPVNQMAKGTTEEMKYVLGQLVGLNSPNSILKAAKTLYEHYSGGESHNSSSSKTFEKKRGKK

PRKX (human) = PRKX (human) (UniProt P51817)
CLK4 (human) = CLK4 (human) (UniProt Q9HAZ1)
Sequence of CLK4 (human) (Q9HAZ1 whole entry, looked up): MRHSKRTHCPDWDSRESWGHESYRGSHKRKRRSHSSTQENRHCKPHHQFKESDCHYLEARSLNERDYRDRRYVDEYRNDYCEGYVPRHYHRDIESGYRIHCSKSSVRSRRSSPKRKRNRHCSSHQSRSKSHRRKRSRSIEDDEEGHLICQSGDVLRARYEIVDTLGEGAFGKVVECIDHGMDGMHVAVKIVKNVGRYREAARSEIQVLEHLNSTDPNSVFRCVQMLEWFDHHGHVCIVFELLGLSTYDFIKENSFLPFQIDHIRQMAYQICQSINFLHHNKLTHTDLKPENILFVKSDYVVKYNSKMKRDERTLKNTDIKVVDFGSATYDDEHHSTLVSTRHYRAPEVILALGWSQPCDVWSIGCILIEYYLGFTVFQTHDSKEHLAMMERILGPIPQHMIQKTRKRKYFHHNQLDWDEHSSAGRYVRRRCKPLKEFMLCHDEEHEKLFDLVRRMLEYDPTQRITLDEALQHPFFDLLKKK

CAMK2B (human) = CAMK2B (human) (UniProt Q13554)
PRKACA (human) = PRKACA (human) (UniProt P17612)
[2] = molecular target: TYK2 JH1 catalytic (human) (UniProt P29597)
MAP4K4 (human) = MAP4K4 (human) (UniProt O95819)
Sequence of MAP4K4 (human) (O95819 whole entry, looked up): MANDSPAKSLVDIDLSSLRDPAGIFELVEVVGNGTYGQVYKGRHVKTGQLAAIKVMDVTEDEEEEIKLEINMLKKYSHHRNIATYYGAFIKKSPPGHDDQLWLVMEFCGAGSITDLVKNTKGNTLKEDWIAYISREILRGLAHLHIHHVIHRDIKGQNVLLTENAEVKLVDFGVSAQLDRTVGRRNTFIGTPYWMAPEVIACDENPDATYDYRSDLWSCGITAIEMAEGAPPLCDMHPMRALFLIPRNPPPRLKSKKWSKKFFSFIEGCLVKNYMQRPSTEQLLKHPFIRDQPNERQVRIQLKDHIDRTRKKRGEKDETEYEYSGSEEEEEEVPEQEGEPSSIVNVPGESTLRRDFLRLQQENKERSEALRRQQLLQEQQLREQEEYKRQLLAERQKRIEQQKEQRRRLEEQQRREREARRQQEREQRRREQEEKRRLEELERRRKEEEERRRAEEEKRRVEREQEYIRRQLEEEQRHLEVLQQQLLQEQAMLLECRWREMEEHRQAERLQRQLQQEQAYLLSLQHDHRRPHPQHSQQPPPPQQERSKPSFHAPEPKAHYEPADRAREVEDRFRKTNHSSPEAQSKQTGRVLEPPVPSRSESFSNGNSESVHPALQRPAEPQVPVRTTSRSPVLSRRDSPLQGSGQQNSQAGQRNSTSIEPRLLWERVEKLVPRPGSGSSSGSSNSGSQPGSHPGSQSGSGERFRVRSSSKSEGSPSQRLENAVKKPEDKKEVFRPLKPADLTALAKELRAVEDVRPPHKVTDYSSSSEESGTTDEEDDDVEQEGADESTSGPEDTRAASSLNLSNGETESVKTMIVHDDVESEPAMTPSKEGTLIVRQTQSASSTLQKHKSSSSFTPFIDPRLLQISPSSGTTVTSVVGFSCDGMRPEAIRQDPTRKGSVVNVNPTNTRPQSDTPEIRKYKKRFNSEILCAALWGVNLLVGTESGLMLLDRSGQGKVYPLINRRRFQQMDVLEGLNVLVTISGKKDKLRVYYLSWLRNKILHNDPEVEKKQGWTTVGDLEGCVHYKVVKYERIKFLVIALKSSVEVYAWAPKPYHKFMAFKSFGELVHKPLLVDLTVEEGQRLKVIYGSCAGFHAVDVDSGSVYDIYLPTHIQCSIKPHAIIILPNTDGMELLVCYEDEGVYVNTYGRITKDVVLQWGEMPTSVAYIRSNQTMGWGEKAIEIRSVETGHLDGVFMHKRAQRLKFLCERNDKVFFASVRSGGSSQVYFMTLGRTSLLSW

CSNK1A1 (human) = CSNK1A1 (human) (UniProt P48729)
DAPK1 (human) = DAPK1 (human) (UniProt P53355)
CSNK1G1 (human) = CSNK1G1 (human) (UniProt Q9HCP0)
WEE1 (human) = WEE1 (human) (UniProt P30291)
EPHA8 (human) = EPHA8 (human) (UniProt P29322)
PHKG2 (human) = PHKG2 (human) (UniProt P15735)
MAP4K1 (human) = MAP4K1 (human) (UniProt Q92918)
SLK (human) = SLK (human) (UniProt Q9H2G2)
TXK (human) = TXK (human) (UniProt P42681)
MERTK (human) = MERTK (human) (UniProt Q12866)
CHUK (human) = CHUK (human) (UniProt O15111)
[3] = system: FLT3 (human), P36888 [D835H]

Sequence of MYLK3 (human) (Q32MK0 whole entry, looked up): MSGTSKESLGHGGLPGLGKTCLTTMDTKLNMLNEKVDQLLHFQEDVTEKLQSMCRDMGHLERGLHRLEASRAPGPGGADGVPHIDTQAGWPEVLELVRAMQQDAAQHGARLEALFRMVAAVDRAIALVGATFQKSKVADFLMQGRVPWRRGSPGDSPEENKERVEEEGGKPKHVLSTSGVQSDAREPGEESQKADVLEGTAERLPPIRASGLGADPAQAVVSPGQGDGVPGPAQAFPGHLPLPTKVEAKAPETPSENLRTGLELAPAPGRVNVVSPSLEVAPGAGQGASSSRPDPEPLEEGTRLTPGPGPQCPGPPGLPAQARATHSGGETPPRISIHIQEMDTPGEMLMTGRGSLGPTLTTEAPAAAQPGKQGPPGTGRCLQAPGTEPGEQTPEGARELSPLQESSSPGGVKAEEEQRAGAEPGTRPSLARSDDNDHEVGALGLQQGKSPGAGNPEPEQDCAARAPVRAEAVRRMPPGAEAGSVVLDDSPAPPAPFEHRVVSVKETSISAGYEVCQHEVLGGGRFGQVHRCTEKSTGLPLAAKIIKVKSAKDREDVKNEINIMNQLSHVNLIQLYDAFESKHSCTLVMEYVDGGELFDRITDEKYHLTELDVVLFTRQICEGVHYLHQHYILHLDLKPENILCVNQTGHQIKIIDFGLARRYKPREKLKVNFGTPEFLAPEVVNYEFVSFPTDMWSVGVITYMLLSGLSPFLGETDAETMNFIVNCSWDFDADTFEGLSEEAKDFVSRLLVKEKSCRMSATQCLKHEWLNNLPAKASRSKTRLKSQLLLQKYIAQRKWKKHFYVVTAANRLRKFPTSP

SMILES	kinase still bound, per cent of control (PIK3C2B (human)) [%]	kinase still bound, per cent of control (LATS1 (human)) [%]	kinase still bound, per cent of control (MYO3A (human)) [%]	kinase still bound, per cent of control (NEK1 (human)) [%]	kinase still bound, per cent of control [1] [%]	kinase still bound, per cent of control (TRPM6 (human)) [%]	kinase still bound, per cent of control (MYLK3 (human)) [%]	kinase still bound, per cent of control (PRKCI (human)) [%]	kinase still bound, per cent of control (TNK2 (human)) [%]	kinase still bound, per cent of control (STK25 (human)) [%]	kinase still bound, per cent of control (PTK6 (human)) [%]	kinase still bound, per cent of control (MAP2K3 (human)) [%]	kinase still bound, per cent of control (ANKK1 (human)) [%]	kinase still bound, per cent of control (RPS6KA6 KD1 (human)) [%]	kinase still bound, per cent of control (CDK3 (human)) [%]	kinase still bound, per cent of control (CDK2 (human)) [%]	kinase still bound, per cent of control (MYO3B (human)) [%]	kinase still bound, per cent of control (PAK3 (human)) [%]	kinase still bound, per cent of control (PI4KB (human)) [%]	kinase still bound, per cent of control (INSR (human)) [%]	other results
N#CCNC(=O)c1ccc(-c2ccnc(Nc3ccc(N4CCOCC4)cc3)n2)cc1	56	100	100	42	78	100	68	75	93	71	100	53	100	78	100	55	100	73	17	57	kinase still bound, per cent of control (MAP3K2 (human)): 100%; kinase still bound, per cent of control (TTK (human)): 22%; kinase still bound, per cent of control (PRKX (human)): 74%; kinase still bound, per cent of control (CLK4 (human)): 15%; kinase still bound, per cent of control (CAMK2B (human)): 14%; kinase still bound, per cent of control (PRKACA (human)): 96%; kinase still bound, per cent of control [2]: 0.25%; kinase still bound, per cent of control (MAP4K4 (human)): 85%; kinase still bound, per cent of control (CSNK1A1 (human)): 81%; kinase still bound, per cent of control (DAPK1 (human)): 7%; kinase still bound, per cent of control (CSNK1G1 (human)): 100%; kinase still bound, per cent of control (WEE1 (human)): 100%; kinase still bound, per cent of control (EPHA8 (human)): 83%; kinase still bound, per cent of control (PHKG2 (human)): 23%; kinase still bound, per cent of control (MAP4K1 (human)): 11%; kinase still bound, per cent of control (SLK (human)): 100%; kinase still bound, per cent of control (TXK (human)): 100%; kinase still bound, per cent of control (MERTK (human)): 100%; kinase still bound, per cent of control (CHUK (human)): 0%
O=c1cc(N2CCOCC2)oc2c(-c3cccc4c3sc3ccccc34)cccc12	20	100	89	58	98	100	100	100	97	59	98	91	100	71	100	75	100	100	100	66	kinase still bound, per cent of control [3]: 92%; kinase still bound, per cent of control (MAP3K2 (human)): 100%; kinase still bound, per cent of control (TTK (human)): 100%; kinase still bound, per cent of control (PRKX (human)): 89%; kinase still bound, per cent of control (CLK4 (human)): 95%; kinase still bound, per cent of control (CAMK2B (human)): 80%; kinase still bound, per cent of control (PRKACA (human)): 87%; kinase still bound, per cent of control [2]: 75%; kinase still bound, per cent of control (MAP4K4 (human)): 100%; kinase still bound, per cent of control (CSNK1A1 (human)): 78%; kinase still bound, per cent of control (DAPK1 (human)): 72%; kinase still bound, per cent of control (CSNK1G1 (human)): 92%; kinase still bound, per cent of control (WEE1 (human)): 100%; kinase still bound, per cent of control (EPHA8 (human)): 82%; kinase still bound, per cent of control (PHKG2 (human)): 99%; kinase still bound, per cent of control (MAP4K1 (human)): 90%; kinase still bound, per cent of control (SLK (human)): 100%; kinase still bound, per cent of control (TXK (human)): 91%; kinase still bound, per cent of control (MERTK (human)): 100%; kinase still bound, per cent of control (CHUK (human)): 100%
COc1cc(C(=O)N2CCC(N3CCN(C)CC3)CC2)ccc1Nc1ncc2c(n1)N(C)c1ccccc1C(=O)N2C	100	100	94	83	100	100	100	100	18	68	58	75	100	92	100	100	83	83	95	84	kinase still bound, per cent of control [3]: 100%; kinase still bound, per cent of control (MAP3K2 (human)): 97%; kinase still bound, per cent of control (TTK (human)): 28%; kinase still bound, per cent of control (PRKX (human)): 99%; kinase still bound, per cent of control (CLK4 (human)): 54%; kinase still bound, per cent of control (CAMK2B (human)): 62%; kinase still bound, per cent of control (PRKACA (human)): 100%; kinase still bound, per cent of control [2]: 52%; kinase still bound, per cent of control (MAP4K4 (human)): 85%; kinase still bound, per cent of control (CSNK1A1 (human)): 100%; kinase still bound, per cent of control (DAPK1 (human)): 73%; kinase still bound, per cent of control (CSNK1G1 (human)): 100%; kinase still bound, per cent of control (WEE1 (human)): 100%; kinase still bound, per cent of control (EPHA8 (human)): 80%; kinase still bound, per cent of control (PHKG2 (human)): 33%; kinase still bound, per cent of control (MAP4K1 (human)): 100%; kinase still bound, per cent of control (SLK (human)): 100%; kinase still bound, per cent of control (TXK (human)): 91%; kinase still bound, per cent of control (MERTK (human)): 100%; kinase still bound, per cent of control (CHUK (human)): 100%
